From patent publication EP3414229B1, “QUINOLINONE LYSYL OXIDASE-LIKE 2 INHIBITORS AND USES THEREOF” (Pharmakea, Inc., priority 2016, dated 2017) come the findings set out here.

The target in assay [1] is T1, human LOXL2 (Homo sapiens, UniProt Q9Y4K0).
T1 construct: expressed in transfected cells; 10-20X concentrated conditioned media used as the enzyme source
T1 sequence (Q9Y4K0 26-774): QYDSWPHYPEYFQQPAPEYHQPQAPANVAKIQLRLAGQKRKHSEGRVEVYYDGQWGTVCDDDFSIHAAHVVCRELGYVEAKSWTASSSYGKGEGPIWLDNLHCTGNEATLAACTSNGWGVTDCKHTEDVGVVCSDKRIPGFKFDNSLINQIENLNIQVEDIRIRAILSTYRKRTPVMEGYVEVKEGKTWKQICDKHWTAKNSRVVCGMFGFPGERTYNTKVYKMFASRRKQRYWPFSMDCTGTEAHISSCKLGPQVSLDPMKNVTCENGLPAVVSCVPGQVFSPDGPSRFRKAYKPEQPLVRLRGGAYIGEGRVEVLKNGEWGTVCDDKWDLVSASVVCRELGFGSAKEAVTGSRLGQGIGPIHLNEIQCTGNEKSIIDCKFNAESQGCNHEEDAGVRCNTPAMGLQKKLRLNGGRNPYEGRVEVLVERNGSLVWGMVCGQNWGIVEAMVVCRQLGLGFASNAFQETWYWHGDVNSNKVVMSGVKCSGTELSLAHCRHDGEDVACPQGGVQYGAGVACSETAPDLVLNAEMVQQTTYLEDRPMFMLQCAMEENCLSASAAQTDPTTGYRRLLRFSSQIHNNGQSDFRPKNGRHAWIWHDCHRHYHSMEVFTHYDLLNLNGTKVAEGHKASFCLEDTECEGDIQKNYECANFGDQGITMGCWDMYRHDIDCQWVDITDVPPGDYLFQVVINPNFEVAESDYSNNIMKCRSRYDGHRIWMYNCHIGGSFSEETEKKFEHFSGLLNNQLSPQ
Kind of assay: Human LOXL2 Amine Oxidase Activity Assay (Amplex Red fluorescence). The format is biochemical. To be noted: concentrated conditioned media from CHO cells stably expressing human LOXL2; 2h at 37 °C with test compound; DAP substrate. The method, then: Example B-1: Human LOXL2 Amine Oxidase Activity Assay
LOXL2 amine oxidase activity is evaluated by measuring Amplex Red fluorescence using 10-20X concentrated conditioned media from CHO cells stably expressing human LOXL2. To assay for amine oxidase activity, 10 µL of the concentrated conditioned media is incubated with 2 µL of test compound in DMSO and 73 µL Assay Buffer (50 mM Borate Buffer, pH8) for 2h at 37 °C. After the 2h incubation, 5 ul of 10 mM 1,5-Diaminopentane (DAP) diluted in Assay Buffer and 10 µl of Amplex Red Mix (8.5 µl Assay Buffer + 0.5 µl of 10 mM Amplex Red + 1 µl of 500 U/ml Horseradish Peroxidase) are added and the plate mixed and immediately placed on the FlexStaion for fluorescence measurements. Fluorescence is read in kinetic mode every 2 min for 1 hour at excitation = 544 and emission = 590. The amine oxidase activity is calculated from the slope of the linear portion of the curve.

In assay [2] the test system is C57B1/6 male mice. Kind of assay: Mouse Oropharyngeal Bleomycin Model of Lung Fibrosis. The format is in vivo. The settings on record: dosed prophylactically at 60 mg/kg p.o. Here is the method:
Example B-3: Mouse Oropharyngeal Bleomycin Model of Lung Fibrosis
Lung fibrosis is induced in C57B1/6 male mice by administering bleomycin (0.1-4 U/kg) via oropharyngeal instillation. Mice are either pretreated with vehicle or test compound (1 day to 1 hour) orally, intraperitoneally, intravenously or subcutaneously before bleomycin installation (prophylactic dosing) or 7-14 days post bleomycin instillation (therapeutic dosing). The route and frequency of dosing are based on previously determined pharmacokinetic properties for the LOXL2 inhibitor in mouse. After bleomycin instillation animals are monitored daily for weight loss and clinical signs for 14-28 days prior to sacrifice. […] For histological examination, lung slices are stained with Masson's trichrome or Picro-Sirius red to measure cross-linked collagen as an indicator of fibrosis and an Ashcroft score of lung fibrotic and inflammatory damage determined. In addition, immunohistochemistry of fibrotic proteins such as a-smooth muscle actin can be recorded. […] After the acid hydrolysis, 25-100 µl of the supernatant is dried down, resuspended in 25 µl water and the hydroxyproline content determined by the addition of 0.5 ml Chloramine T solution (140 mg Chloramine T in 6.5 ml ddH20 + 1 ml n-propanol + 2.5 ml 1M sodium acetate) and incubation at room temperature for 20 min. […]

For `NCc1cc(=O)c2ccccc2[nH]1` [Compound 1-1, 2-(Aminomethyl)quinolin-4(1H)-one], the IC50 (commonly the concentration needed to halve the response being measured) in assay [1] is under 300 nM.
On the same count and under the same terms, the result for `Cn1c(CN)cc(=O)c2ccccc21` [Compound 1-2, 2-(Aminomethyl)-1-methylquinolin-4(1H)-one] reads over 1000 nM.
The compound `NCc1cc(=O)c2cc(Br)ccc2[nH]1` [Compound 1-3, 2-(Aminomethyl)-6-bromoquinolin-4(1H)-one] came in with an IC50 in assay [1] of under 300 nM. In addition, the “efficacy in bleomycin model of lung fibrosis” value in assay [2] is listed as “efficacious”.
Take `C#Cc1ccc2[nH]c(CN)cc(=O)c2c1` [Compound 1-4, 2-(Aminomethyl)-6-ethynylquinolin-4(1H)-one]: in assay [1], the IC50 was under 300 nM.
Same read-out and setting: with `NCc1cc(=O)c2cc(-c3ccccc3)ccc2[nH]1` [Compound 1-5, 2-(Aminomethyl)-6-phenylquinolin-4(1H)-one] the figure was under 300 nM; with `NCc1cc(=O)c2cc(-c3cn(-c4ccccc4)nn3)ccc2[nH]1` [Compound 1-6, 2-(Aminomethyl)-6-(1-phenyl-1H-1,2,3-triazol-4-yl)quinolin-4(1H)-one], under 300 nM.
On the same count and under the same terms, with `NCc1cc(=O)c2cc(C#Cc3ccccc3)ccc2[nH]1` [Compound 1-7, 2-(Aminomethyl)-6-(phenylethynyl)quinolin-4(1H)-one] the figure was under 300 nM; with `NCc1cc(=O)c2cc(-n3cccn3)ccc2[nH]1` [Compound 1-8, 2-(Aminomethyl)-6-(1H-pyrazol-1-yl)quinolin-4(1H)-one], under 300 nM.
In assay [1], `COc1ccc2[nH]c(CN)cc(=O)c2c1` [Compound 1-9, 2-(Aminomethyl)-6-methoxyquinolin-4(1H)-one] yielded an IC50 of under 300 nM.
Same read-out and setting: with `NCc1cc(=O)c2cc(-c3ccc(F)cc3)ccc2[nH]1` [Compound 1-11, 2-(Aminomethyl)-6-(4-fluorophenyl)quinolin-4(1H)-one] the figure was under 300 nM.
The same measure, in the same setting: with `NCc1cc(=O)c2cc(Oc3ccccc3)ccc2[nH]1` [Compound 1-21, 2-(Aminomethyl)-6-phenoxyquinolin-4(1H)-one] the figure was under 300 nM; with `NCc1cc(=O)c2cc(-c3cncnc3)ccc2[nH]1` [Compound 1-40, 2-(Aminomethyl)-6-(pyrimidin-5-yl)quinolin-4(1H)-one], under 300 nM.
The same measure, in the same setting: with `Cc1ccc(=O)n(-c2ccc3[nH]c(CN)cc(=O)c3c2)c1` [Compound 1-46, 2-(Aminomethyl)-6-(5-methyl-2-oxopyridin-1(2H)-yl)quinolin-4(1H)-one] the figure was under 300 nM; with `Cn1cc(-c2ccc3[nH]c(CN)cc(=O)c3c2)cn1` [Compound 1-47, 2-(Aminomethyl)-6-(1-methyl-1H-pyrazol-4-yl)quinolin-4(1H)-one], under 300 nM.
`NCc1cc(=O)c2cc(-c3cccc4cccnc34)ccc2[nH]1` [Compound 1-65, 2-(Aminomethyl)-[6,8'-biquinolin]-4(1H)-one] registered an IC50 in assay [1] of under 300 nM.
Still for that read-out and setting: with `NCc1cc(=O)c2cc(-c3cncc(OCc4ccccc4)c3)ccc2[nH]1` [Compound 1-66, 2-(Aminomethyl)-6-(5-(benzyloxy)pyridin-3-yl)quinolin-4(1H)-one] the figure was under 300 nM.
On the same count and under the same terms, the result for `NCc1cc(=O)c2cc(-c3ccc(F)cc3Cl)ccc2[nH]1` [Compound 1-70, 2-(Aminomethyl)-6-(2-chloro-4-fluorophenyl)quinolin-4(1H)-one] reads under 300 nM.
In the case of `COc1ccc(-c2ccc3[nH]c(CN)cc(=O)c3c2)cc1F` [Compound 1-72, 2-(Aminomethyl)-6-(3-fluoro-4-methoxyphenyl)quinolin-4(1H)-one], in assay [1], the IC50 is under 300 nM.
The same measure, in the same setting: the result for `NCc1cc(=O)c2cc(-c3ccc(C(F)(F)F)nc3)ccc2[nH]1` [Compound 1-74, 2-(Aminomethyl)-6-(6-(trifluoromethyl)pyridin-3-yl)quinolin-4(1H)-one] reads under 300 nM.
Same read-out and setting: the result for `NCc1cc(=O)c2cc(-c3cnc(C(F)(F)F)nc3)ccc2[nH]1` [Compound 1-77, 2-(Aminomethyl)-6-(2-(trifluoromethyl)pyrimidin-5-yl)quinolin-4(1H)-one] reads under 300 nM.
Same read-out and setting: the result for `COCCOc1ccc2[nH]c(CN)cc(=O)c2c1` [Compound 1-78, 2-(Aminomethyl)-6-(2-methoxyethoxy)quinolin-4(1H)-one] reads under 300 nM.
